Assay results published in patent publication US20130005759A1, “SMALL MOLECULE MODIFIERS OF MICRORNA MIR-122” (North Carolina State University, priority 2010, published 2013).

What was measured:
[1] = tested on: psiCHECK-control vector (no miRNA target sequence); test: psiCHECK-control vector luciferase counter-assay in Huh7 cells; type: cell-based, human; settings: Huh7, 10 μM
Text: (FIG. 3). […] The relative luciferase units were normalized to the corresponding DMSO signals. […] This confirms that compound 2 and the antagomir have similar effects on the reduction of miR-122 function in Huh7 cells.
Compounds which elicited greater than a 5-fold increase of the relative luciferase units signal compared to the DMSO control were then re-assayed in triplicate to confirm the validity of the hit compound. Upon secondary validation of miR-122 inhibition, identical assays were repeated with the psiCHECK-Control vector to ascertain that the effect is specific to the miR-122 pathway, and not simply affecting the Renilla gene. In order to assess the relative degree of miR-122 inhibition, Huh7 cells were also co-transfected with either the psiCHECK-Control plasmid or the psiCHECK-miR122 plasmid (0.5 μg) and a miR-122 2′-OMe PS antagomir (50 pmol; 5′ […] (SEQ ID NO:4) 3′; IDT DNA)(2) using the X-tremGENE transfection reagent (Roche Applied Science, 4:2 reagent/DNA ratio). The transfection media was replaced with standard DMEM growth media after 4 hours and the cells were incubated for 48 hours prior to analysis with a Dual Luciferase Assay Kit (FIG. 3).

miR-21 = miR-21 luciferase reporter assay in HeLa-miR-21-Luc cells; type: cell-based; settings: 10 μM, 48 hours
Method: Using the previously described HeLa-miR-21-Luc cell line (a stably transfected line harboring a miR-21 binding sequence in the 3′ UTR of a firefly luciferase gene),(9) cells were grown to 80% confluency (DMEM) and treated with either DMSO, the previously reported miR-21 inhibitor, or compounds 1 and 2 at 10 μM (1% DMSO final concentration). The cells were incubated for 48 hours at 37° C. (5% CO2) and then assayed with a Bright-Glo Luciferase Kit (Promega) and analyzed using a Wallac VICTOR^3V luminometer with a measurement time of 1 s and a delay time of 2 s (FIG. 4).

pri-miR-122 = test: quantitative RT PCR of pri-miR-122 in Huh7 cells; type: cell-based, human; settings: Huh7, 10 μM, 48 hours, normalized to DMSO
Method: The activity of the small molecule modifiers was analyzed by quantitative RT PCR in order to measure their direct effects on miR-122 expression levels in Huh7 cells. […] All experiments were conducted in triplicate, and the data was normalized to a DMSO control.
Each treatment was conducted in triplicate to ensure statistical validity. Cells were then incubated at 37° C. for 48 hours (DMEM, 5% CO2). The media was removed, and cells were washed with PBS buffer (2×2 mL, pH 7.4) followed by RNA isolation with the mirPremier™ microRNA Isolation Kit (Aldrich). The RNA was quantified using a Nanodrop ND-1000 spectrophotometer and 10 ng of each RNA sample was reverse transcribed using the TaqMan™ microRNA Reverse Transcription Kit (Applied Biosystems) in conjunction with either the miR-122 or miR-21 TaqMan™ RT primer (16° C., 30 min; 42° C., 30 min; 85° C., 5 min). Quantitative Real Time PCR was conducted with a TaqMan™ 2× Universal PCR Master Mix and the appropriate TaqMan™ miRNA assay (Applied Biosystems) on a BioRad MyiQ RT-PCR thermocycler (1.3 μL RT PCR product; 95° C., 10 min; followed by 40 cycles of 95° C., 15 s; 60° C. 60 s). […]

[2] = tested on: hepatitis C virus (HCV) genotype 1a H77c RNA; test: HCV replication in Huh7 cells (HCV RNA by quantitative RT PCR); type: cell-based; settings: Huh7, 10 μM (antagomir transfected), 48 hours
Method: Aberrantly regulated miR-122 is involved in the development of heptocellular carcinoma (HCC). miR-122 is a cellular component required by hepatitis C virus (HCV) for viral replication. […] Due to the efficient down-regulation of miRNA-122 by the small molecule inhibitors 1 and 2, both compounds were tested for their ability to inhibit HCV replication in Huh7 cells. The pHtat2Neo/QR/KR/FV/SI plasmid (provided by Dr. Stanley Lemon of University of Texas Medical Branch (UTMB)) was used to generate genotype 1a H77c RNA, which was subsequently transfected into Huh7 cells.^16 The cells were then either transfected with a miR-122 antagomir (positive control), or treated with compounds 1 and 2 (10 μM), or DMSO (negative control). After 48 hours, total RNA was isolated and HCV RNA levels were measured by quantitative RT PCR (FIG. 7). In agreement with previous reports, the antagomir reduced HCV RNA levels to 20%.^6 Moreover, the small molecule miR-122 inhibitors 1 and 2 elicited a reduction in viral load to 48% and 47%, respectively.
The pHtat2Neo/QR/KR/FV/SI plasmid (provided by Dr. Stanley Lemon)^16 was linearized using XbaI (10 units, 50 μL reaction; New England Biolabs), followed by transcription with T7 RNA Polymerase (6 h, 37° C.), and purification on Microcon 10 columns. Huh7 cells were then grown to 60% confluency in a 6 well plate and transfected with 1 μg RNA using X-tremGENE transfection reagent (Roche Applied Science, 3:2 reagent/RNA ratio) in Opti-Mem media (Invitrogen). After a 4 hour incubation at 37° C., the transfection media was removed and replaced with standard growth media (2 mL) supplemented with 10 μM of 1 or 2 (1% DMSO final concentration). All experiments were conducted in triplicate for statistical validation. […] Quantitative RT-PCR was then performed as previously described using the general HCV RT-PCR Primers (5′: […] 3′ (SEQ ID NO:7) and 5′ […] 3′) (SEQ ID NO:8) and GADPH primers (5′ […] 3′ (SEQ ID NO:9) and 5′ […] 3′) (SEQ ID NO:10) as a standard control.

| Compound | normalized Renilla luciferase signal with psiCHECK-control vector [1] | activity in miRNA-21 reporter (luciferase signal) (miR-21) | pri-miR-122 down-regulation to (remaining level) (pri-miR-122) [%] | HCV RNA levels / viral load reduced to [2] [%] |
| --- | --- | --- | --- | --- |
| O=C(Nc1ccc2ccccc2c1)c1ccc(Cl)cc1Cl [Compound 1] | no statistically significant alteration | no activity was found | 22 | 48 |
| O=S(=O)(c1ccc2c(c1)CCCN2)N1CCC[C@H]2CCCC[C@@H]21 [Compound 2] | no statistically significant alteration | no activity was found | 3 | 47 |
